# Measurements published in ChEMBL document CHEMBL3885881, “DrugMatrix”.
# Species on record: Rattus norvegicus
# Assay: DrugMatrix - Regimen: Daily Repeat
# Format: toxicity, organism-based, Sprague-Dawley
# Design: regimen Daily Repeat, gender Male, age 6-8 weeks
# Details: in vivo, po, route oral GAVAGE, vehicle .5 % CMC; for BASOPHIL / EOSINOPHIL / ERYTHROCYTE COUNT / HEMATOCRIT / HEMOGLOBIN / LEUKOCYTE COUNT / LYMPHOCYTE / MEAN CORPUSCULAR HEMOGLOBIN / MEAN CORPUSCULAR HEMOGLOBIN CONCENTRATION / MEAN CORPUSCULAR VOLUME / MONOCYTE / NEUTROPHIL / PLATELET COUNT: tissue Blood; for ALANINE AMINOTRANSFERASE / ALBUMIN / ALKALINE PHOSPHATASE / ASPARTATE AMINOTRANSFERASE / BLOOD UREA NITROGEN / CHLORIDE / CHOLESTEROL / CREATINE PHOSPHOKINASE / CREATININE / GLUCOSE / PHOSPHORUS / POTASSIUM / SODIUM / TOTAL BILIRUBIN / TOTAL PROTEIN: tissue Plasma
# [1] = 0 mg/kg, 72 h, dose level Control, time 3 day
# [2] = 0 mg/kg, 120 h, dose level Control, time 5 day
# [3] = 36 mg/kg, 72 h, dose level Low, time 3 day
# [4] = 36 mg/kg, 120 h, dose level Low, time 5 day
compound,measurement,setting,value
CCCCc1oc2ccccc2c1C(=O)c1cc(I)c(OCCN(CC)CC)c(I)c1 [AMIODARONE],BASOPHIL,[1],0%
same,EOSINOPHIL,[1],0%
same,ERYTHROCYTE COUNT,[1],6.19 x10E6/uL
same,HEMATOCRIT,[1],36.94%
same,HEMOGLOBIN,[1],14.58 G/DL
same,LEUKOCYTE COUNT,[1],11.54 x10E3/uL
same,LYMPHOCYTE,[1],84.8%
same,MEAN CORPUSCULAR HEMOGLOBIN,[1],23.58 pg
same,MEAN CORPUSCULAR HEMOGLOBIN CONCENTRATION,[1],39.44 G/DL
same,MEAN CORPUSCULAR VOLUME,[1],59.76 fL
same,MONOCYTE,[1],1.4%
same,NEUTROPHIL,[1],13.8%
same,PLATELET COUNT,[1],1068.8 x10E3/uL
same,ALANINE AMINOTRANSFERASE,[1],38.17 u/L
same,ALBUMIN,[1],3.88 G/DL
same,ALKALINE PHOSPHATASE,[1],391.33 u/L
same,ASPARTATE AMINOTRANSFERASE,[1],69.83 u/L
same,BLOOD UREA NITROGEN,[1],15 mg/dL
same,CHLORIDE,[1],104.17 MEQ/L
same,CHOLESTEROL,[1],72.17 mg/dL
same,CREATINE PHOSPHOKINASE,[1],174.33 u/L
same,CREATININE,[1],0.58 mg/dL
same,GLUCOSE,[1],192.67 mg/dL
same,PHOSPHORUS,[1],10.52 mg/dL
same,POTASSIUM,[1],6.8 MEQ/L
same,SODIUM,[1],149.67 MEQ/L
same,TOTAL BILIRUBIN,[1],0.78 mg/dL
same,TOTAL PROTEIN,[1],6.28 G/DL
same,BASOPHIL,[2],0%
same,EOSINOPHIL,[2],0.17%
same,ERYTHROCYTE COUNT,[2],6.72 x10E6/uL
same,HEMATOCRIT,[2],40.02%
same,HEMOGLOBIN,[2],15.83 G/DL
same,LEUKOCYTE COUNT,[2],9.5 x10E3/uL
same,LYMPHOCYTE,[2],87.17%
same,MEAN CORPUSCULAR HEMOGLOBIN,[2],23.57 pg
same,MEAN CORPUSCULAR HEMOGLOBIN CONCENTRATION,[2],39.62 G/DL
same,MEAN CORPUSCULAR VOLUME,[2],59.55 fL
same,MONOCYTE,[2],1.67%
same,NEUTROPHIL,[2],11%
same,PLATELET COUNT,[2],1053.67 x10E3/uL
same,ALANINE AMINOTRANSFERASE,[2],26.33 u/L
same,ALBUMIN,[2],4.02 G/DL
same,ALKALINE PHOSPHATASE,[2],316.67 u/L
same,ASPARTATE AMINOTRANSFERASE,[2],61.33 u/L
same,BLOOD UREA NITROGEN,[2],18.67 mg/dL
same,CHLORIDE,[2],108 MEQ/L
same,CHOLESTEROL,[2],65.17 mg/dL
same,CREATINE PHOSPHOKINASE,[2],161.17 u/L
same,CREATININE,[2],0.75 mg/dL
same,GLUCOSE,[2],177.33 mg/dL
same,PHOSPHORUS,[2],9.72 mg/dL
same,POTASSIUM,[2],6.18 MEQ/L
same,SODIUM,[2],150.5 MEQ/L
same,TOTAL BILIRUBIN,[2],0.68 mg/dL
same,TOTAL PROTEIN,[2],6.55 G/DL
same,BASOPHIL,[3],0%
same,EOSINOPHIL,[3],0%
same,ERYTHROCYTE COUNT,[3],6.18 x10E6/uL
same,HEMATOCRIT,[3],36.8%
same,HEMOGLOBIN,[3],14.4 G/DL
same,LEUKOCYTE COUNT,[3],12.87 x10E3/uL
same,LYMPHOCYTE,[3],77%
same,MEAN CORPUSCULAR HEMOGLOBIN,[3],23.4 pg
same,MEAN CORPUSCULAR HEMOGLOBIN CONCENTRATION,[3],39.13 G/DL
same,MEAN CORPUSCULAR VOLUME,[3],59.8 fL
same,MONOCYTE,[3],2.67%
same,NEUTROPHIL,[3],20.33%
same,PLATELET COUNT,[3],1095 x10E3/uL
same,ALANINE AMINOTRANSFERASE,[3],33 u/L
same,ALBUMIN,[3],3.77 G/DL
same,ALKALINE PHOSPHATASE,[3],365.33 u/L
same,ASPARTATE AMINOTRANSFERASE,[3],56.33 u/L
same,BLOOD UREA NITROGEN,[3],15 mg/dL
same,CHLORIDE,[3],103.67 MEQ/L
same,CHOLESTEROL,[3],84.33 mg/dL
same,CREATINE PHOSPHOKINASE,[3],134.67 u/L
same,CREATININE,[3],0.7 mg/dL
same,GLUCOSE,[3],159.33 mg/dL
same,PHOSPHORUS,[3],11.13 mg/dL
same,POTASSIUM,[3],6.63 MEQ/L
same,SODIUM,[3],148.67 MEQ/L
same,TOTAL BILIRUBIN,[3],0.7 mg/dL
same,TOTAL PROTEIN,[3],6.13 G/DL
same,BASOPHIL,[4],0%
same,EOSINOPHIL,[4],0.33%
same,ERYTHROCYTE COUNT,[4],6.73 x10E6/uL
same,HEMATOCRIT,[4],39.47%
same,HEMOGLOBIN,[4],15.6 G/DL
same,LEUKOCYTE COUNT,[4],11.67 x10E3/uL
same,LYMPHOCYTE,[4],86.33%
same,MEAN CORPUSCULAR HEMOGLOBIN,[4],23.27 pg
same,MEAN CORPUSCULAR HEMOGLOBIN CONCENTRATION,[4],39.63 G/DL
same,MEAN CORPUSCULAR VOLUME,[4],58.73 fL
same,MONOCYTE,[4],2%
same,NEUTROPHIL,[4],11.33%
same,PLATELET COUNT,[4],1213.67 x10E3/uL
same,ALANINE AMINOTRANSFERASE,[4],26 u/L
same,ALBUMIN,[4],3.93 G/DL
same,ALKALINE PHOSPHATASE,[4],392.33 u/L
same,ASPARTATE AMINOTRANSFERASE,[4],57.67 u/L
same,BLOOD UREA NITROGEN,[4],14.67 mg/dL
same,CHLORIDE,[4],106.67 MEQ/L
same,CHOLESTEROL,[4],88 mg/dL
same,CREATINE PHOSPHOKINASE,[4],148.33 u/L
same,CREATININE,[4],0.7 mg/dL
same,GLUCOSE,[4],154.67 mg/dL
same,PHOSPHORUS,[4],10.83 mg/dL
same,POTASSIUM,[4],6.67 MEQ/L
same,SODIUM,[4],150.33 MEQ/L
same,TOTAL BILIRUBIN,[4],0.93 mg/dL
same,TOTAL PROTEIN,[4],6.6 G/DL
